Reference: ChEMBL document CHEMBL1201862, “PubChem BioAssay data set” (2004)
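Method: 48-hour compound exposure of cells in 96-well plates, five concentrations, linear interpolation of endpoints. Here, GI50 denotes the concentration required for 50% inhibition of growth.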 Calls of active or inactive are those of the source. Cut-off read from the data, not from the text of the source: active = GI50 up to about 1.1 µM and inactive = higher.

Legend:
Experiment in all cases: DTP human tumour cell line panel, 48 h
SK-MEL-28 = test system: SK-MEL-28
CCRF-CEM = test system: CCRF-CEM
DLD-1 = test system: DLD-1
EKVX = test system: EKVX
UACC-62 = test system: UACC-62
UO-31 = test system: UO-31
NCI-H226 = test system: NCI-H226
U-251 = test system: U-251
SNB-75 = test system: SNB-75
OVCAR-4 = test system: OVCAR-4
COLO 205 = test system: COLO 205
NCI-H23 = test system: NCI-H23
SK-OV-3 = test system: SK-OV-3
RPMI-8226 = test system: RPMI-8226
SF-268 = test system: SF-268
SF-539 = test system: SF-539
KM-20L2 = test system: KM-20L2
NCI/ADR-RES = test system: NCI/ADR-RES
Malme-3M = test system: Malme-3M
SNB-78 = test system: SNB-78
A549 = test system: A549
SK-MEL-5 = test system: SK-MEL-5
UACC-257 = test system: UACC-257
MOLT-4 = test system: MOLT-4
HOP-62 = test system: HOP-62
MCF7 = test system: MCF7
HOP-18 = test system: HOP-18
SN12C = test system: SN12C
IGROV-1 = test system: IGROV-1
SF-295 = test system: SF-295
HCT-116 = test system: HCT-116
SW-620 = test system: SW-620
OVCAR-5 = test system: OVCAR-5
SNB-19 = test system: SNB-19
K562 = test system: K562
HT-29 = test system: HT-29
LOX IMVI = test system: LOX IMVI
CAKI-1 = test system: CAKI-1
HL-60 = test system: HL-60
KM12 = test system: KM12
OVCAR-3 = test system: OVCAR-3
HCC 2998 = test system: HCC 2998
OVCAR-8 = test system: OVCAR-8
SK-MEL-2 = test system: SK-MEL-2
RXF 393 = test system: RXF 393
HOP-92 = test system: HOP-92
DMS-273 = test system: DMS-273
HCT-15 = test system: HCT-15
DMS-114 = test system: DMS-114
NCI-H460 = test system: NCI-H460
XF498 = test system: XF498
A498 = test system: A498

Q: `COc1ccc(OCC(C)(C)O)cc1` was tested. Which GI50 (SK-MEL-28) did it give?
A: > 100 µM (inactive)

Q: What about the GI50 (CCRF-CEM) of the same compound?
A: > 100 µM (inactive)

Q: What about the GI50 (DLD-1) of the same compound?
A: > 100 µM (inactive)

Q: And the GI50 (EKVX)?
A: > 100 µM (inactive)

Q: What about the GI50 (UACC-62) of the same compound?
A: > 100 µM (inactive)

Q: And the GI50 (UO-31)?
A: > 100 µM (inactive)

Q: What about the GI50 (NCI-H226) of the same compound?
A: > 100 µM (inactive)

Q: And the GI50 (U-251)?
A: > 100 µM (inactive)

Q: And the GI50 (SNB-75)?
A: > 47 µM (inactive)

Q: What about the GI50 (OVCAR-4) of the same compound?
A: > 62.8 µM (inactive)

Q: And the GI50 (COLO 205)?
A: > 100 µM (inactive)

Q: And the GI50 (NCI-H23)?
A: > 100 µM (inactive)

Q: What about the GI50 (SK-OV-3) of the same compound?
A: > 100 µM (inactive)

Q: And the GI50 (RPMI-8226)?
A: > 100 µM (inactive)

Q: And the GI50 (SF-268)?
A: > 100 µM (inactive)

Q: What about the GI50 (SF-539) of the same compound?
A: > 100 µM (inactive)

Q: What about the GI50 (KM-20L2) of the same compound?
A: > 100 µM (inactive)

Q: And the GI50 (NCI/ADR-RES)?
A: > 100 µM (inactive)

Q: What about the GI50 (Malme-3M) of the same compound?
A: > 100 µM (inactive)

Q: What about the GI50 (SNB-78) of the same compound?
A: > 100 µM (inactive)

Q: And the GI50 (A549)?
A: > 100 µM (inactive)

Q: And the GI50 (SK-MEL-5)?
A: > 100 µM (inactive)

Q: What about the GI50 (UACC-257) of the same compound?
A: > 100 µM (inactive)

Q: And the GI50 (MOLT-4)?
A: > 100 µM (inactive)

Q: What about the GI50 (HOP-62) of the same compound?
A: > 100 µM (inactive)

Q: And the GI50 (MCF7)?
A: > 45.3 µM (inactive)

Q: And the GI50 (HOP-18)?
A: > 100 µM (inactive)

Q: And the GI50 (SN12C)?
A: > 100 µM (inactive)

Q: And the GI50 (IGROV-1)?
A: > 100 µM (inactive)

Q: And the GI50 (SF-295)?
A: > 100 µM (inactive)

Q: And the GI50 (HCT-116)?
A: > 100 µM (inactive)

Q: What about the GI50 (SW-620) of the same compound?
A: > 100 µM (inactive)

Q: What about the GI50 (OVCAR-5) of the same compound?
A: > 100 µM (inactive)

Q: What about the GI50 (SNB-19) of the same compound?
A: > 100 µM (inactive)

Q: And the GI50 (K562)?
A: > 100 µM (inactive)

Q: And the GI50 (HT-29)?
A: > 100 µM (inactive)

Q: What about the GI50 (LOX IMVI) of the same compound?
A: > 100 µM (inactive)

Q: And the GI50 (CAKI-1)?
A: > 100 µM (inactive)

Q: What about the GI50 (HL-60) of the same compound?
A: > 100 µM (inactive)

Q: What about the GI50 (KM12) of the same compound?
A: > 100 µM (inactive)

Q: And the GI50 (OVCAR-3)?
A: > 100 µM (inactive)

Q: And the GI50 (HCC 2998)?
A: > 100 µM (inactive)

Q: And the GI50 (OVCAR-8)?
A: > 100 µM (inactive)

Q: What about the GI50 (SK-MEL-2) of the same compound?
A: > 100 µM (inactive)

Q: And the GI50 (RXF 393)?
A: > 100 µM (inactive)

Q: What about the GI50 (HOP-92) of the same compound?
A: > 100 µM (inactive)

Q: What about the GI50 (DMS-273) of the same compound?
A: > 100 µM (inactive)

Q: And the GI50 (HCT-15)?
A: > 100 µM

Q: What about the GI50 (DMS-114) of the same compound?
A: > 100 µM (inactive)

Q: What about the GI50 (NCI-H460) of the same compound?
A: > 100 µM (inactive)

Q: And the GI50 (XF498)?
A: > 100 µM (inactive)

Q: And the GI50 (A498)?
A: > 100 µM (inactive)
